Measurements: article PMC7544826 (Communications Biology, 2020)

System: Wnt3a-dependent TCF/LEF activation
Test: TOP-FLASH luciferase assay without the addition of Notum (control)
Type: cell-based
Conditions: concentrations up to 1 mM, no Notum added
Experimental: . OPTS is a common lipase substrate with an octanoyl lipid linked to a fluorescent moiety. It is not a natural Notum substrate; however, it can be used to quantify the enzymatic activity of purified Notum protein[23],[25],[28]. […]. […]. […]. The stable HEK293 STF cell line[31] carrying the Super Top Flash firefly luciferase reporter was split into 96-well plates and transfected 24 h later with a constitutive Renilla luciferase plasmid (pRL-TK, Promega) at 20 ng DNA per well using Lipofectamine 2000 (Life Technologies, UK). The media were replaced with test media 16 h later. […] The firefly and Renilla luciferase activities were measured 24 h later with Dual-Glo luciferase reporter assay system (Promega, Madison, WI) using an Ascent Lunimoskan luminometer (Labsystems). The firefly luciferase activity was normalized to Renilla luciferase activity (relative light unit, RLU). Luciferase reporter assays were performed in triplicate.
Supplementary Figure 1. […].

For `Cn1c(=O)c2c(ncn2C)n(C)c1=O` [caffeine, 1,3,7-trimethylxanthine], the “Effect on Wnt3a-induced luciferase activity without Notum” value was “did not affect luciferase activity”.
